Like-named read-outs stand apart in the source and are kept apart here.
What was measured:
[1] = system: H1299 (non-small cell lung carcinoma); assay: In vitro antiproliferation assay, H1299 cells (TABLE 1 6 point assay; TABLE 2); assay type: cell-based; details: 6 point assay, read-out: H1299, 6pt (IC50, inhibition of proliferation)
Method: (§1) Certain compounds were tested against other cell types for their ability to inhibit proliferation in standard antiproliferation assays.

A549 (lung carcinoma) = assay: In vitro antiproliferation assay, A549 cells (TABLE 1 6 point assay; TABLE 2); assay type: cell-based; details: 6 point assay, read-out: A549, 6pt (IC50, inhibition of proliferation)
Method: as §1

[2] = Homo sapiens, NCI-H1299, H1299 cells

SMILES | IC50 [1, 2] [nM] | IC50 (A549 (lung carcinoma); Homo sapiens, A549, A549 cells) [nM] | IC50 ([1]; H1299 cells) [nM] | IC50 (A549 (lung carcinoma); A549 cells) [nM]
Cc1cc(Nc2ncc(F)c(NC3C4C=CC(C4)C3C(=O)OC3C[C@@H](C)CC[C@@H]3C(C)C)n2)ccc1N1CCN(C)CC1 (mixture of isomers) [compound 135, Racemic (2-exo,3-exo)-5-Fluoro-N4-[3-(1R,2S,5R)-(−)-menthyloxycarbonylbicyclo[2.2.1]hept-5-en-2-yl]-N2-[3-methyl-4-(4-methylpiperazin-1-yl)phenyl]-2,4-pyrimidinediamine] | 1000 to 10000 | 1000 to 10000 | – | –
Cc1cc(Nc2ncc(F)c(N[C@H]3[C@@H](C(N)=O)[C@@H]4C=C[C@H]3C4)n2)ccc1OC1CCCN(C)C1 (mixture of isomers) [compound 147, (1R,2R,3S,4S)-N4-(3-Aminocarbonylbicyclo[2.2.1]hept-5-en-2-yl)-5-fluoro-N2-[3-methyl-4-(1-methylpiperidin-3(±)-yloxy)phenyl]-2,4-pyrimidinediamine] | – | – | ≤ 100 | ≤ 100
NC(=O)[C@@H]1CCC[C@@H]1Nc1nc(Nc2ccc3c(c2)NCC3)ncc1F (racemic) [compound 156, Racemic-cis-N4-(2-aminocarbonylcyclopent-1-yl)-N2-(2,3-dihydroindol-6-yl)-5-fluoro-2,4-pyrimidinediamine] | 1000 to 10000 | 1000 to 10000 | – | –
NC(=O)[C@@H]1CCC[C@@H]1Nc1nc(Nc2ccc3c(c2)CCN3)ncc1F (racemic) [compound 157, Racemic-cis-N4-(2-aminocarbonylcyclopent-1-yl)-N2-(2,3-dihydroindol-5-yl)-5-fluoro-2,4-pyrimidinediamine] | 1000 to 10000 | 1000 to 10000 | – | –
Cc1cc(Nc2ncc(F)c(N[C@H]3CCC[C@H]3C(=O)NCC3CC3)n2)ccc1N1CCN(C)CC1 (racemic) [compound 158, Racemic-cis-N4-[2-(N-cyclopropylmethyl)aminocarbonylcyclopent-1-yl]-5-fluoro-N2-[4-(4-methylpiperazin-1-yl)-3-methylphenyl]-2,4-pyrimidinediamine] | 1000 to 10000 | 100 to 1000 | – | –

The next lines start with the values.

IC50 [1, 2] [nM] | IC50 (A549 (lung carcinoma); Homo sapiens, A549, A549 cells) [nM] | IC50 ([1]; H1299 cells) [nM] | IC50 (A549 (lung carcinoma); A549 cells) [nM] | SMILES
1000 to 10000 | 1000 to 10000 | – | – | CN1CCN(Cc2cc3cc(Nc4ncc(F)c(N[C@H]5CCC[C@H]5C(N)=O)n4)ccc3o2)CC1 (racemic) [compound 131, Racemic-cis-N4-(2-aminocarbonylcyclopent-1-yl)-5-fluoro-N2-[2-(4-methylpiperazin-1-ylmethylene)benzofuran-5-yl]-2,4-pyrimidinediamine]
100 to 1000 | 100 to 1000 | – | – | COC(=O)CN1CCc2ccc(Nc3ncc(F)c(N[C@H]4CCC[C@H]4C(N)=O)n3)cc2C1 (racemic) [compound 132, Racemic-cis-N4-(2-aminocarbonylcyclopent-1-yl)-5-fluoro-N2-[2-(methoxycarbonylmethylene)-1,2,3,4-tetrahydroisoquin-7-yl]-2,4-pyrimidinediamine]
1000 to 10000 | 1000 to 10000 | – | – | COc1cc(Nc2ncc(F)c(NC3C4C=CC(C4)C3C(N)=O)n2)ccc1S(N)(=O)=O (racemic) [compound 133, Racemic-(2-exo,3-exo)-N4-(3-aminocarbonylbicyclo[2.2.1]hept-5-en-2-yl)-N2-(4-aminosulfonyl-3-methoxyphenyl)-5-fluoro-2,4-pyrimidinediamine]
100 to 1000 | 100 to 1000 | – | – | CN1CCN(CCn2ccc3cc(Nc4ncc(F)c(NC5C6C=CC(C6)C5C(N)=O)n4)ccc32)CC1 (racemic) [compound 134, Racemic-(2-exo,3-exo)-N4-(3-aminocarbonylbicyclo[2.2.1]hept-5-en-2-yl)-5-fluoro-N2-{1-[2-(4-methylpiperazin-1-yl)ethyl]indol-5-yl}-2,4-pyrimidinediamine]
100 to 1000 | 100 to 1000 | – | – | Cc1cc(Nc2ncc(F)c(N[C@H]3CCC[C@H]3C(=O)NC3CC3)n2)ccc1N1CCN(C)CC1 (racemic) [compound 159, Racemic-cis-N4-[2-(N-cyclpropyl)aminocarbonylcyclopent-1-yl]-5-fluoro-N2-[4-(4-methylpiperazin-1-yl)-3-methylphenyl]-2,4-pyrimidinediamine]
